We go through 18 compounds from US20260242366A1, “STING AGONISTS CONTAINING HYDRAZIDE, HYDRAZINE, AND HYDROXAMIC ACID FUNCTIONAL GROUPS” (BioNTech SE, priority 2023, published 2026).

By pEC50 is commonly meant the negative decadic logarithm of the EC50, by convention in mol/L. Usually EC50 stands for the concentration needed to bring the measured effect to its halfway point. What is called solubility is how much of the substance goes into solution per volume.

In data set [1] the test system is STING signaling (IRF and NFKB-pathway activation) in THP1 Dual Cells. Briefly: THP-1 assay (THP1 Dual reporter cells, IRF / NFkB pathway activation). In kind it is cell-based. The settings on record: for pEC50: Homo sapiens, THP1 Dual cells. How it is done: THP1 Dual Cells™, were purchased from Invivogen (Cat. thpd-nfis), and used to determine the biological activity of the compounds on a molecular level and to determine downstream activation of STING signaling (IRF and NFKB-pathway activation). Briefly, cultured cells were seeded on the day of the experiment with a density of 1×10^5 cells per well (96-well format in RPMI supplemented with 25 mM HEPES, 10% heat inactivated FCS,). A serial dilution of the compounds was prepared and added to the cells for a total incubation time of 24 hours. The test items were tested in 8 concentrations to determine a dose-dependent activation of the NFKB and the IRF pathway. After 24 h cells were centrifuged and supernatants harvested for the detection of secreted alkaline phosphatase (measured by QUANTI-Blue™ detection solution; Cat. rep-qbs Invivogen) or lucia luciferase (measured by QUANTI-Luc™ reagent; Cat. rep-qlc1, Invivogen), respectively. The read outs were be performed according to the manufacturer's instructions. EC50 values were calculated using GraphPad Prism 9.

For data set [2], the system named is HEK293 cells with a knocked-in STING receptor (IRF and IFNβ-pathway activation). The experiment in a line: HEK STING assay with and without PFO (membrane permeabilization). In kind it is cell-based. The settings on record: for pEC50 / EC50: Homo sapiens; for pEC50: read-out: HEK IRF EC50.
Data set [3] in a line: Solubility in PBS and HEPES buffer. In kind it is physicochemical. The settings on record: for solubility: aqueous buffer. The source says:
The primary differences are that Compound XX is less hydrophobic as a result of the introduction of oxazolyl heterocyclic ring in place of the pyrazolyl heterocyclic ring of Compound XV and as a result of the introduction of an imidazopyridine ring in place of the benzimidazole ring of Compound XV.

In data set [4] the test system is PBMCs from healthy donors. Briefly: PBMC assay, dose-dependent cytokine induction. The settings on record: Homo sapiens, 24 h. In kind it is cell-based. How it is done: Compounds I-A to IV were additionally tested on PBMCs from healthy donors to determine the dose-dependent cytokine induction. PBMCs from buffy coats were thawed on the day of the experiment and seeded with a density of 5×10^5 cells per well (96-well format, RPMI with 5% Human Serum+1% MEM Non-Essential Amino Acids+1% Sodium Pyruvate). In line with the experiment above, a serial dilution of the compounds was prepared and added to the cells for 24 hours. On the next days, cells were centrifuged and supernatants harvested for a cytokine readout based on a multiplex assay kit from mesoscale discovery (customized multiplex panel for the cytokines: IFNα2a, IFNβ, TNFα and IL6). Impact on cell viability was determined by CellTiter Glo2.0 from promega (Cat. G9241). Both experimental read outs were performed according to the manufacturer's instructions.

Where [5] appears, read: IRF pathway, read-out: THP-1 IRF EC50.
Where [6] appears, read: NFkB pathway, read-out: THP-1 NFkB EC50.
The mark [7] stands for this setting: HEK293, read-out: HEK STING EC50 no PFO [nM].
The mark [8] stands for this setting: HEK293, read-out: HEK STING EC50 with PFO [nM].
Where [9] appears, read: HEPES Buffer pH 7.0, read-out: Solubility HEPES Buffer pH 7.0.
Setting [10] is: IFNα in supernatant, read-out: PBMC EC50 (μM) for IFNα.
[11] abbreviates: IFNβ in supernatant, read-out: PBMC EC50 (μM) for IFNβ.
Where [12] appears, read: 24 h incubation, IRF pathway, read-out: THP-1 EC50 (IRF).

pEC50: −log10 of the molar value. Several values for one entry are separate records, joined by “and”; a condition that tells them apart may be missing. Equal entries are not always repeated. Where two headings read alike, the source gives them in different places. Bounds are passed on as bounds.

Consider `CCn1nc(C)cc1C(=O)Nc1nc2cc(CO)cc(OC)c2n1C/C=C/Cn1c(NC(=O)c2cc(C)nn2CC)nc2cc(C(N)=O)cc(OCCCN3CCOCC3)c21` [Compound XL, (E)-2-(1-ethyl-3-methyl-1H-pyrazole-5-carboxamido)-1-(4-(2-(1-ethyl-3-methyl-1H-pyrazole-5-carboxamido)-5-(hydroxymethyl)-7-methoxy-1H-benzo[d]imidazol-1-yl)but-2-en-1-yl)-7-(3-morpholinopropoxy)-1H-benzo[d]imidazole-5-carboxamide], for which the “THP-1 IRF MEC” value in data set [1] (Activity w/o permeabilization) was 78 nM. The “THP-1 NFkB MEC” value in data set [1] (Activity w/o permeabilization) is 78 nM. For the same compound, the pEC50 in data set [1] (setting [5]) was 6.66; in data set [1] (setting [6]), 6.83; in data set [2] (HEK293, Activity w/o permeabilization), 9.28; in data set [2] (HEK293, Activity with permeabilization), 8.95. Further, the results for the “HEK IFNβ MEC” value in data set [2] (Activity w/o permeabilization) and in data set [2] (Activity with permeabilization) were 0.8 nM and 4.0 nM, respectively. Further, the EC50 in data set [2] (setting [7]) and in data set [2] (setting [8]) was 2.7 nM each time.

Regarding `CCn1nc(C)cc1C(=O)Nc1nc2cc(CN)cc(OC)c2n1C/C=C/Cn1c(NC(=O)c2cc(C)nn2CC)nc2cc(C(N)=O)cc(OCCCN3CCOCC3)c21` [Compound XLI, 1-[(2E)-4-[5-(Aminomethyl)-2-(1-ethyl-3-methyl-1H-pyrazole-5-amido)-7-methoxy-1H-1,3-benzodiazol-1-yl]but-2-en-1-yl]-2-(1-ethyl-3-methyl-1H-pyrazole-5-amido)-7-[3-(morpholin-4-yl)propoxy]-1H-1,3-benzodiazole-5-carboxamide], the pEC50 was 6.09 in data set [1] (setting [5]) and 6.44 in data set [1] (setting [6]). Moreover, the EC50 was determined as 38 nM in data set [2] (setting [7]) and 25 nM in data set [2] (setting [8]).

`CCc1nc(C)oc1C(=O)Nc1nc2cc(CO)cc(OC)c2n1C/C=C/Cn1c(NC(=O)c2oc(C)nc2CC)nc2cc(C(N)=O)cc(OCCCN3CCOCC3)c21` [Compound XLII, (E)-N-(5-carbamoyl-1-(4-(2-(4-ethyl-2-methyloxazole-5-carboxamido)-5-(hydroxymethyl)-7-methoxy-1H-benzo[d]imidazol-1-yl)but-2-en-1-yl)-7-(3-morpholinopropoxy)-1H-benzo[d]imidazol-2-yl)-4-ethyl-2-methyloxazole-5-carboxamide]: the pEC50 in data set [1] (setting [5]) is 6.48; in data set [1] (setting [6]), 6.54. The EC50 in data set [2] (setting [7]) is 26 nM; in data set [2] (setting [8]) it was 14 nM.

Turning to `CCn1nc(C)cc1C(=O)Nc1nc2cc(C(N)=O)cc(OC)c2n1C/C=C/Cn1c(NC(=O)c2cc(C)nn2CC)nc2cc(C(N)=O)cc(OCCCN(C)N)c21` [Compound XV], the “Solubility PBS Buffer pH 7.4” value in data set [3] (PBS Buffer pH 7.4) is given as “<LOQ”; in data set [3] (PBS Buffer pH 7.4, lower limit of quantitation 1 μM) it was “<LOQ^#”. In addition, in data set [3] (setting [9]), the solubility is 5.9 µM and 5 µg/mL.

Regarding `CCc1nc(C)oc1C(=O)Nc1nc2cc(C(N)=O)cnc2n1C/C=C/Cn1c(NC(=O)c2oc(C)nc2CC)nc2cc(C(N)=O)cc(OCCCN(C)N)c21` [Compound XX], the “Solubility versus Compound XV” value in data set [3] (Compound XX compared with Compound XV) is “slightly better solubility”. In addition, the solubility in data set [3] (setting [9]) is 11.5 µM and 10 µg/mL; in data set [3] (PBS Buffer pH 7.4, lower limit of quantitation 1 μM, read-out: Solubility PBS Buffer pH 7.4), 3.6 µM; in data set [3] (PBS Buffer pH 7.4, read-out: Solubility PBS Buffer pH 7.4), 3 µg/mL.

Regarding `CCn1nc(C)cc1C(=O)Nc1nc2cc(C(N)=O)cc(OC)c2n1C/C=C/Cn1c(NC(=O)c2cc(C)nn2CC)nc2cc(C(N)=O)cc(OCCCC(=O)NN)c21` [I-A], the EC50 came out at 0.334 µM in data set [4] (setting [10]) and 1.25 µM in data set [4] (setting [11]).

Take `CCn1nc(C)cc1C(=O)Nc1nc2cc(C(N)=O)cc(OC)c2n1C/C=C/Cn1c(NC(=O)c2cc(C)nn2CC)nc2cc(C(N)=O)cc(OCCCC(=O)N(C)N)c21` [I-B]: the EC50 in data set [4] (setting [11]) worked out at 0.403 µM.

Turning to `CCn1nc(C)cc1C(=O)Nc1nc2cc(C(N)=O)cc(OC)c2n1C/C=C/Cn1c(NC(=O)c2cc(C)nn2CC)nc2cc(C(N)=O)cc(OCCCC(=O)NNC)c21` [I-C], in data set [4] (setting [11]), the EC50 amounted to 1.1 µM.

Turning to `CCn1nc(C)cc1C(=O)Nc1nc2cc(C(N)=O)cc(OC)c2n1C/C=C/Cn1c(NC(=O)c2cc(C)nn2CC)nc2cc(C(N)=O)cc(OCCCC(=O)N(N)Cc3ccc(N)cc3)c21` [I-E], the results for the EC50 in data set [4] (setting [10]) and in data set [4] (setting [11]) were 0.762 µM and 0.139 µM, respectively.

`CCn1nc(C)cc1C(=O)Nc1nc2cc(C(N)=O)cc(OC)c2n1C/C=C/Cn1c(NC(=O)c2cc(C)nn2CC)nc2cc(C(N)=O)cc(OCCCC(=O)NNCc3ccc(N)cc3)c21` [I-F]: the EC50 in data set [4] (setting [11]) is 0.209 µM.

Consider `CCn1nc(C)cc1C(=O)Nc1nc2cc(C(N)=O)cc(OC)c2n1C/C=C/Cn1c(NC(=O)c2cc(C)nn2CC)nc2cc(C(N)=O)cc(OCCCC(=O)NO)c21` [I-G], for which the EC50 in data set [4] (setting [10]) is 2.02 µM; in data set [4] (setting [11]), 0.311 µM.

For `CCn1nc(C)cc1C(=O)Nc1nc2cc(C(N)=O)cc(OC)c2n1C/C=C/Cn1c(NC(=O)c2cc(C)nn2CC)nc2cc(C(N)=O)cc(OCCCC(=O)N(C)O)c21` [I-H], the 50% effective concentration (EC50) in data set [4] (setting [10]) is 0.665 µM; in data set [4] (setting [11]), 0.249 µM.

For the compound `CCn1nc(C)cc1C(=O)Nc1nc2cc(C(N)=O)cc(OC)c2n1C/C=C/Cn1c(NC(=O)c2cc(C)nn2CC)nc2cc(C(N)=O)cc(OCCCC(=O)N(C)OC)c21` [I-I], the EC50 came out at 0.41 µM in data set [4] (setting [10]) and 0.212 µM in data set [4] (setting [11]).

Consider `CCn1nc(C)cc1C(=O)Nc1nc2cc(C(N)=O)cc(OC)c2n1C/C=C/Cn1c(NC(=O)c2cc(C)nn2CC)nc2cc(C(N)=O)cc(OCCCC(=O)N(N)CCN)c21` [I-J], for which the pEC50 in data set [1] (setting [12]) is 7.63. The values for the EC50 in data set [4] (setting [10]) and in data set [4] (setting [11]) were 0.321 µM and 0.293 µM, respectively.

For `CCn1nc(C)cc1C(=O)Nc1nc2cc(C(N)=O)cc(OC)c2n1C/C=C/Cn1c(NC(=O)c2cc(C)nn2CC)nc2cc(C(N)=O)cc(OCCCC(=O)N3CCN(N)CC3)c21` [I-K], in data set [1] (setting [12]), the pEC50 was 8.01. Also, the EC50 was found to be 0.302 µM in data set [4] (setting [10]) and 0.234 µM in data set [4] (setting [11]).

Take `CCn1nc(C)cc1C(=O)Nc1nc2cc(C(=O)NN)cc(OC)c2n1C/C=C/Cn1c(NC(=O)c2cc(C)nn2CC)nc2cc(C(N)=O)cc(OCCCN3CCOCC3)c21` [II-A]: in data set [1] (setting [12]), the pEC50 was 7.07. Also, the EC50 in data set [4] (setting [10]) was 0.875 µM; in data set [4] (setting [11]), 0.403 µM.

In the case of `CCn1nc(C)cc1C(=O)Nc1nc2cc(C(=O)N(C)N)cc(OC)c2n1C/C=C/Cn1c(NC(=O)c2cc(C)nn2CC)nc2cc(C(N)=O)cc(OCCCN3CCOCC3)c21` [II-C], the pEC50 in data set [1] (setting [12]) is 6.57. The EC50 in data set [4] (setting [10]) worked out at 1.15 µM; in data set [4] (setting [11]), 0.91 µM.

For `CCn1nc(C)cc1C(=O)Nc1nc2cc(C(N)=O)cc(OC)c2n1C/C=C/Cn1c(NC(=O)c2cc(C)nn2CC)nc2cc(C(N)=O)cc(OCCCN3CCOCC3)c21` [diABZI, reference compound], the pEC50 in data set [1] (setting [5]) was 7.80; in data set [1] (setting [6]) it was 7.85. Further, the EC50 was 1.6 nM in data set [2] (setting [7]) and 1.2 nM in data set [2] (setting [8]).
